Patent EP3749673B1, “CRYSTALLINE FORM OF BICTEGRAVIR SODIUM” (Sandoz AG, priority 2018, dated 2019)

What was measured:
Type in all cases: physicochemical
[1] = Initial dissolution behaviour (dissolution rate), about 100 mg suspended in 10 ml solvent, filtrate analysed by HPLC; conditions: 24°C, stirring time 1 minute, approx. 100mg in 10ml
Description: The initial dissolution behavior of bictegravir sodium form II was compared with bictegravir sodium form I. Approximately 100mg Bictegravir-Na (Form I or Form II) were suspended at 24°C in 10ml solvent. Two different solvents were used for the study: 0,1M aqueous HCl solution and a phosphate buffer system (pH6,8; prepared according to "Küster Thiel - Rechentafeln dür die chemische Analytik").
After a stirring time of 1 minute a sample was taken and filtered throw a syringe filter. The received clear filtrate was analyzed by HPLC to determine the Bictegravir content. The HPLC-column was a YMC-Pack Pro C18 RS (150mm x 4.6mm) operated at 0.8 ml/min. Detection was at a wavelength of 254 nm. Mobile phases were sulfamic acid in water and acetonitrile, respectively, and were used as components of the gradient.

[2] = Storage stability (polymorphic stability determined by XRPD); conditions: stored at 40°C/75% rh
Description: Thus bictegravir sodium form II is a storage stable (polymorphically stable as determined by XRPD for at least 1 month when stored at 40°C/75% rh) fast-dissolving crystalline form of bictegravir sodium with unexpected advantages over bictegravir sodium form I.

[3] = Differential scanning calorimetry, resistance to temperature stress (solid-solid phase transition); conditions: DSC, heating rate 10 K/min, 25 to 400 °C
Description: Bictegravir sodium Form II was investigated by DSC, which was performed on a Mettler Polymer DSC R instrument. The sample (3.77 mg) was heated in a 40 microliter aluminium pan with a pierced aluminium lid from 25 to 400 °C at a rate of 10 K/min. Nitrogen (purge rate 50 mL/min) was used as purge gas.

Compound | amount dissolved after 1 minute ([1]; 0.1M HCl) [mg/mL] | amount dissolved after 1 minute ([1]; pH6.8 phosphate buffer system) [mg/mL] | polymorphically stable as determined by XRPD (storage time) [2] | onset temperature of exothermic peak (solid-solid phase transition from Form II to Form I) [3] | peak temperature of exothermic peak (solid-solid phase transition from Form II to Form I) [3] | temperature at which decomposition starts ([3]; Form I formed in situ from Form II)
O=C(NCc1c(F)cc(F)cc1F)c1cn2c(c(O)c1=O)C(=O)N1C3CCC(C3)OC1C2 (centres unmarked) [bictegravir sodium form II, bictegravir sodium] | 0.220 | 0.186 | at least 1 month | about 313 °C | about 320 °C | –
O=C(NCc1c(F)cc(F)cc1F)c1cn2c(c(O)c1=O)C(=O)N1C3CCC(C3)OC1C2 (centres unmarked) [bictegravir sodium form I, bictegravir sodium] | 0.085 | 0.059 | – | – | – | about 370 °C
